Earlier results in patent US20210069098A1, “RIBAVIRIN […] COMPOSITION FOR TREATING VIRAL DISEASES” (MT RESEARCH, LLC, priority 2009, published 2021).
Read-outs that look alike come from different tables or passages of the source.

Experiments:
[1] = nebulized neat perflubron
[2] = PLV

## CC(=O)N[C@@H](CS)C(=O)O [N-acetylcysteine (NAC), N-acetylcysteine]
Influenza; in vivo
  survival: improve survival

## FC(F)(F)C(F)(F)C(F)(F)C(F)(F)C(F)(F)C(F)(F)C(F)(F)C(F)(F)Br [perflubron]
[1]
  gas exchange: efficacy for gas exchange
[2]; low dose 10 mL/kg or high dose 20 mL/kg
  reduction in ventilator days or mortality: failed to demonstrate a reduction in ventilator days or mortality
[2]; low dose or high dose, hypotension, hypoxemia and pneumothorax
  complications: more complications

## superoxide dismutase [superoxide dismutase (SOD)]
Influenza; […]
  survival: improve survival
